# Experimental data: paper PMC6305444, “Advancement of the 5-Amino-1-(Carbamoylmethyl)-1H-1,2,3-Triazole-4-Carboxamide Scaffold to Disarm the Bacterial SOS Response” (Frontiers in Microbiology, 2018)
# Assays:
# [1] = Solubility (inferred from titration curves in assay buffer; DMSO stocks); assay type: physicochemical; settings: FlAsH-LexA cleavage assay buffer, aqueous buffer; suggested by normal titration curves in FlAsH-LexA assay buffer; read-out: aqueous solubility maintained up to
# Description: Representative titrations for the compounds can be found in the Supplementary Figure 1.
# [2] = target: T1, E. coli FlAsH-LexA (RecA-promoted LexA cleavage) (Escherichia coli, UniProt P0A7C2); settings: for activity in FlAsH-LexA cleavage assay (in words): highest concentration 111 μM; for rank order of activities, ortho mono-substitution on area A phenyl: FlAsH-LexA cleavage assay
# Method: (§6) IC50 values were routinely determined using the E. coli FlAsH-LexA cleavage assay previously used to perform HTS ([Mo et al., 2018]). In this assay RecA-promoted LexA cleavage is monitored using fluorescence polarization. […] Reactions were performed in 384-well plates and components were added as 10 μL additions of ATPγS, ssDNA and RecA, in buffer and 10 μL of E. coli FlAsH-LexA in buffer using a Janus liquid handler (Perkin-Elmer). Compound was added as a DMSO solution using a pin tool, and the final concentration of DMSO in the reaction was 1.2%. Once the reaction components were combined, reactions were centrifuged for 1 min at 500 rpm and incubated for 30 min at room temperature. Reactions were quenched with a 10 μL addition of 50 mM EDTA and plates were read on a Tecan Infinite F200 Pro plate reader (Tecan US, Inc., Morrisville, NC, United States). […] On each plate 32 positive (-RecA) and 32 negative controls (+RecA) in which DMSO without compound was added were used to define the range of mP and calculate the fraction inhibited.
# (§7) IC50 values were estimated by non-linear least squares fitting to the data using Equation 1.
# (§8) where FI = Fraction inhibited, [I] = Concentration of compound and n = Hill coefficient. Fitting was performed using Igor Pro (WaveMetrics Inc., Lake Oswego, OR, United States).
# [3] = target: T1, E. coli FlAsH-LexA (RecA-promoted LexA cleavage); assay: biochemical
# Method: as §6, §7, §8
# [4] = target: T2, full-length E. coli LexA (RecA*-induced cleavage) (Escherichia coli, UniProt P0A7C2); assay: Orthogonal 32P-LexA cleavage assay, full-length E. coli LexA; assay type: biochemical
# T2 construct: Full-length E. coli and P. aeruginosa LexA were engineered with a RRXS phosphorylation site on the N-terminus of the full-length protein; made in house
# Method: (§1) Full-length E. coli and P. aeruginosa LexA were engineered with a RRXS phosphorylation site on the N-terminus of the full-length protein, allowing for ^32P labeling by protein kinase A to produce ^32P-LexA, as described previously ([Mo et al., 2018]). Reactions contained 100 nM ^32P-LexA, 200 nM RecA and 10 μM ATPγS and the buffer conditions were identical to those in the HTS assay. Compounds were added in DMSO and the final concentration was 2%. Reactions were incubated for 30 min at room temperature after which 2 × Laemmli buffer was added to stop the assay. The stopped reactions were subjected to 15% SDS-PAGE and the gels were visualized via phosphorimaging on a Typhoon imager (GE Healthcare Bio-Sciences, Marlborough, MA, United States). The intact and cleaved bands were quantified using Quantity One (Bio-Rad, Hercules, CA, United States) and the fraction inhibited was calculated. […] Plots of fraction inhibited against compound concentration were fitted to Equation 1.
# [5] = target: T3, full length LexA from P. aeruginosa (RecA*-mediated cleavage) (Pseudomonas aeruginosa, UniProt P37452); assay: Orthogonal 32P-LexA cleavage assay, full-length P. aeruginosa LexA; assay type: biochemical
# T3 construct: examining RecA^∗-mediated cleavage of full length LexA from P. aeruginosa; made in house
# Method: as §1
# [6] = target: T4, full length E. coli LexA (Escherichia coli, UniProt P0A7C2); assay: Auto-proteolysis of 32P-labelled full length E. coli LexA in the absence of RecA; assay type: biochemical
# T4 construct: a fluorescence-independent assay using a full-length version of E. coli LexA was employed; made in house
# Method: (§2) Supplementary Figure 2. Binding of 14 to LexA alone. (a) Inhibition of the auto-proteolysis of 32P-labelleled full length E. coli LexA by 14 in the absence of RecA. All data represent the mean of two independent measurements and the error bars represent the range of error. The error of the IC50 value is the standard deviation of the fit of equation 1 to the data. (b) Thermal shift observed upon binding of 14 to full length E. coli LexA. The concentrations of LexA and 14 were 5 µM and 50 µM, respectively. The errors for the Tm values are the standard deviations of the fits of equation S1 to the data.
# (§3) Cy5-labeled operator DNA Bound DNA
# (§4) Supplementary Figure 3. LexA DNA binding activity is not impacted by 14. Varying concentrations of […]
# (§5) (SOS box). The titrations were performed in the presence of DMSO or 40 μM of 14. The samples were separated on a non-denaturing polyacrylamide gel (at right) and the bound fraction calculated. […]
# [7] = target: T4, full length E. coli LexA; assay: Thermal shift assay of LexA; assay type: binding; settings: LexA 5 µM, compound 50 µM; LexA alone Tm 57.4 ± 0.4
# Method: as §2, §3, §4, §5
# [8] = target: T5, LexA-S119A / Cy5-labeled SOS operator DNA (Escherichia coli, UniProt P0A7C2, S119A); assay: Electrophoretic mobility shift assay (EMSA), LexA binding to SOS operator DNA; settings: compound vs DMSO
# T5 construct: made in house
# Method: Increasing concentrations (0–1 μM) of LexA-S119A were mixed with 10 nM SOS operator DNA labeled with Cy5 in EMSA running buffer (70 mM Tris-HCl pH 7.5, 10 mM MgCl2, 150 mM NaCl, 5 mM DTT, 0.1 mg/ml BSA, 10 ng/μL ssDNA, 5% glycerol, 0.04% bromophenol blue) in the presence of 50 μM of compound (or DMSO carrier). After incubation at room temperature for 30 min, 20 μL of each reaction was subjected to 6% native PAGE. Gels were visualized on a Typhoon Imager using default fluorescence filter settings for Cy5. Gel bands were quantified using ImageJ (NIH, Bethesda, MD, United States) to determine the fraction of bound DNA at each LexA concentration. Data were fitted to a variable-slope sigmoidal dose-response curve.
# [9] = test system: recA promoter GFP reporter (SOS response); assay: Cell-based SOS reporter assay (GFP under recA promoter, ciprofloxacin-induced); design: species or system E. coli MG1655 ΔsulA ΔtolC; settings: Escherichia coli, 2 h, read-out: IC50, GFP assay
# Method: An E. coli MG1655 strain lacking sulA (ΔsulA) and the tolC transporter (ΔtolC) ([Mo et al., 2016]) was transformed with a reporter plasmid in which gfp expression was under the control of the recA promoter (pMS201 pRecA GFP) ([Zaslaver et al., 2006]). To perform assays overnight, cultures of the reporter strain were diluted 100-fold in M9 minimal media and grown at 37°C with agitation to an OD595 of ∼0.6. For each reaction sample 100 μL of culture were mixed with 100 μL of M9 minimal media containing ciprofloxacin (256 ng/mL). Pre-diluted compounds were added (5 μL) in DMSO and cultures were incubated at 37°C with agitation for 2 h after which the cells were fixed by adding 200 μL of phosphate buffered saline, pH 7.4 containing 1% paraformaldehyde. After 1 h of fixing, the cells were spun down at 4,000 rpm and re-suspended in phosphate buffered saline, pH 7.4. Fixed cells were analyzed using flow cytometry (BD FACSCalibur, Ex/Em: 488 nm/530 nm) and the mean fluorescence of 20,000 cells in each condition was recorded.
# [10] = test system: ΔtolC E. coli; assay: Frequency of resistance (rifampin-resistance mutation rate); assay type: cell-based
# Method: A starter culture of ΔtolC E. coli was cultured overnight at 37°C with shaking in LB broth. The next day the culture was diluted 3 × 10^7-fold in to LB broth. The dilution was used to produce four sets of twelve cultures, each containing 1 mL. To one set was added 10 μL of deionized H2O plus 10 μL of DMSO, to the second set was added 10 μL of 125 ng/mL ciprofloxacin in deionized H2O plus 10 μL of DMSO, to the third set was added 10 μL of deionized H2O plus 10 μL of a 10 mM solution of 14 in DMSO and to the fourth set was added 10 μL of 125 ng/mL ciprofloxacin in deionized H2O plus 10 μL of 14 in DMSO.
# The 48 cultures were incubated at 37°C with shaking for 48 h. To determine the population size, spot plating was performed starting with 1 μL of the cultures diluted 10^5-fold. A 100 μL aliquot of each 10^5-fold dilution was transferred to a 96-well plate and serially diluted (10-fold dilutions) into LB broth. The dilutions (5 μL) were spotted on LB agar plates and the plates were incubated overnight at 37°C. To determine the rifampin resistant population, 999 μL of each 1 mL culture was centrifuged at 6000 rpm for 10 min to remove the cells from solution and the cells were suspended in 100 μL of autoclaved 0.15 M NaCl. The 100 μL solutions were plated on the LB plates containing 100 μg/mL rifampin and incubated for 2 days at 37°C. Following counting of the colonies the program bz-rates ([Gillet-Markowska et al., 2015]) was used to estimate mutation rates.
# [11] = Cytotoxicity testing with HG2 cells; assay type: cell-based
# [12] = test system: ΔtolC E. coli; assay: MIC of ciprofloxacin; assay type: cell-based; settings: Escherichia coli
# T1 sequence (P0A7G6 2-353): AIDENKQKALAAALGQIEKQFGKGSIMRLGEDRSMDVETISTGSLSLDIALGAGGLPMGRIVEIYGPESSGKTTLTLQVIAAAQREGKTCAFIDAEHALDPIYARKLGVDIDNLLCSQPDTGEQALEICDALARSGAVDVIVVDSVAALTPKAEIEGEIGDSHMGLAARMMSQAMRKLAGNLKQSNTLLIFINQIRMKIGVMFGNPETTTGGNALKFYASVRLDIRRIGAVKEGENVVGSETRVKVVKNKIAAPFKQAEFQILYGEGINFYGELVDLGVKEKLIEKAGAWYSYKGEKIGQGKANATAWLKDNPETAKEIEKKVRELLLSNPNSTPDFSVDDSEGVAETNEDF
# T1 sequence (P0A7C2 75-202): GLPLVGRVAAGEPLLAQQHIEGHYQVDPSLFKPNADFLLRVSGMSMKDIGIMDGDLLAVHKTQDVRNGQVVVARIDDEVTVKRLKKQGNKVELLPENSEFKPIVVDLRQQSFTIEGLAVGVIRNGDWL
# T3 sequence (P37452 whole entry): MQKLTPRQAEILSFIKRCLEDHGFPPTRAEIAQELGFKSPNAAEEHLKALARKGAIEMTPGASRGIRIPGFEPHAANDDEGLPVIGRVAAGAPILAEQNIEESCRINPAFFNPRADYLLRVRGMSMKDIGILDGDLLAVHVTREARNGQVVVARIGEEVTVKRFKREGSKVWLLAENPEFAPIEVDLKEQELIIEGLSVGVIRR
# T4 sequence (P0A7C2 whole entry): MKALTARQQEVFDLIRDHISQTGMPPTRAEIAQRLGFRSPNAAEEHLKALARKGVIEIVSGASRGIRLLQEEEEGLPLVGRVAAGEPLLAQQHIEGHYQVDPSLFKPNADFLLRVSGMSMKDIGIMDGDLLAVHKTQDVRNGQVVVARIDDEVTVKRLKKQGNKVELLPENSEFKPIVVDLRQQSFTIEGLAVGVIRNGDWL
# T5 sequence (P0A7C2 whole entry S119A): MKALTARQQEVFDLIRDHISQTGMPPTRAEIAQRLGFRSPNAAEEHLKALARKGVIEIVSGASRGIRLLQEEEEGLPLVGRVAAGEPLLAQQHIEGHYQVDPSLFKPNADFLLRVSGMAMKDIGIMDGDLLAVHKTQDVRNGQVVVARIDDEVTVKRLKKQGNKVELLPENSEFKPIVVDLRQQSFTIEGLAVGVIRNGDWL
# T2 sequence (P0A7C2 whole entry): as the sequence (P0A7C2 whole entry) above
SMILES,solubility [1],activity in FlAsH-LexA cleavage assay (in words) [2],IC50 [3],further results
CCOc1ccc(NC(=O)Cn2nnc(C(=O)Nc3cccc(C)c3)c2N)cc1 [Compound 10],≥ 111 µM,allowed,33 ± 4 µM,–
"CCOc1ccc(NC(=O)Cn2nnc(C(=O)Nc3ccccc3)c2N)cc1 [Compound 14, 5-amino-1-{2-[(4-ethoxyphenyl)amino]-2-oxoethyl}-N-phenyl-1H-1,2,3-triazole-4-carboxamide]",≥ 111 µM,–,9 ± 1 µM,"IC50 [4]: 10 ± 1 µM; IC50 [5]: 5.9 ± 0.4 µM; IC50 [6]: 15.2 ± 2.5 µM; Tm [7]: 67.0 ± 0.1 °C; effect on LexA DNA binding (EMSA) [8]: not impacted; IC50 [9]: 32 ± 2 µM; suppression of ciprofloxacin-induced appearance of resistance to rifampicin ([10]; 100 μM compound): effective in reducing the appearance of resistance to rifampicin; decrease in per generation mutation rate relative to ciprofloxacin alone ([10]; 100 μM compound + ciprofloxacin 1.25 ng/mL, rifampin resistance, 48 h): approximately threefold; mutation rate, compound alone ([10]; 100 μM compound, no ciprofloxacin): comparable to DMSO alone controls; CC50 [11]: > 500 µM"
CCOc1ccc(NC(=O)Cn2nnc(C(=O)Nc3cccnc3)c2N)cc1 [Compound 13],≥ 111 µM,tolerated,40 ± 3 µM,–
Cc1ccc(NC(=O)c2nnn(CC(=O)Nc3ccccc3)c2N)cc1C [Compound 2],–,loss of activity,> 100 µM,"rank order of activities, ortho mono-substitution on area A phenyl [2]: Me (5) > Et (22) > OMe (23) > OEt (24) = H (2)"
Cc1ccc(NC(=O)c2nnn(CC(=O)NC3CCCCC3)c2N)cc1C [Compound 3],≥ 111 µM,returned activity,44 ± 4 µM,–
"O=C(O)c1cn(C2CC2)c2cc(N3CCNCC3)c(F)cc2c1=O [ciprofloxacin, reference compound]",–,–,–,"mutation rate, ciprofloxacin alone ([10]; sub-MIC concentration 1.25 ng/mL): produced an induction of mutagenesis; MIC [12]: 5 ng/mL"
Cc1ccc(NC(=O)c2nnn(CC(=O)Nc3ccccc3C)c2N)cc1C [Compound 5],≥ 111 µM,–,17 ± 2 µM,"rank order of activities, ortho mono-substitution on area A phenyl [2]: Me (5) > Et (22) > OMe (23) > OEt (24) = H (2)"
Cc1ccc(NC(=O)Cn2nnc(C(=O)Nc3ccc(C)c(C)c3)c2N)c(C)c1 [Compound 8],≥ 111 µM,tolerated but not significantly superior to ortho-substitution alone,15 ± 2 µM,–
Cc1cccc(NC(=O)Cn2nnc(C(=O)Nc3ccc(C)c(C)c3)c2N)c1 [Compound 6],–,not tolerated,> 100 µM,–
CCOc1ccc(NC(=O)Cn2nnc(C(=O)Nc3ccc(C)cc3)c2N)cc1 [Compound 11],≥ 111 µM,allowed,15 ± 2 µM,–
Cc1ccc(NC(=O)Cn2nnc(C(=O)Nc3ccc(C)c(C)c3)c2N)cc1 [Compound 7],≥ 111 µM,–,18 ± 1 µM,–
Cc1ccc(NC(=O)c2nnn(CC(=O)NC3CCCCCC3)c2N)cc1C [Compound 4],≥ 111 µM,returned activity,22 ± 3 µM,–
CCOC(=O)c1ccc(NC(=O)c2nnn(CC(=O)Nc3ccc(OCC)cc3)c2N)cc1 [Compound 12],≥ 111 µM,tolerated,19 ± 3 µM,–
CCOc1ccc(NC(=O)Cn2nnc(C(=O)Nc3ccc(C)c(C)c3)c2N)cc1 [Compound 1],≥ 111 µM,–,32 ± 6 µM,IC50 [5]: 130 ± 28 µM; CC50 [11]: 277 µM
CCOc1ccc(NC(=O)Cn2nnc(C(=O)Nc3ccccc3C)c2N)cc1 [Compound 9],–,not tolerated,> 100 µM,–
